Laboratory results published in patent publication US5703072A, “Bicyclic nonane and decane compounds having dopamine receptor affinity” (Allelix Biopharmaceuticals, priority 1996, dated 1997).

Assays:
[1] = target: T1, human D4 receptor (D4.2 sub-type) (Homo sapiens, UniProt P21917, DEL265-296); assay: D4 receptor binding: displacement of 3H-spiperone; conditions: D4 affinity; 3H-spiperone displacement
T1 construct: expressed in transfected cells; host or cells: HEK 298 (human embryonic kidney) cells (so in the source); homogenate of stably transfected cells
T1 sequence (P21917 with tags, fused parts or gaps DEL265-296): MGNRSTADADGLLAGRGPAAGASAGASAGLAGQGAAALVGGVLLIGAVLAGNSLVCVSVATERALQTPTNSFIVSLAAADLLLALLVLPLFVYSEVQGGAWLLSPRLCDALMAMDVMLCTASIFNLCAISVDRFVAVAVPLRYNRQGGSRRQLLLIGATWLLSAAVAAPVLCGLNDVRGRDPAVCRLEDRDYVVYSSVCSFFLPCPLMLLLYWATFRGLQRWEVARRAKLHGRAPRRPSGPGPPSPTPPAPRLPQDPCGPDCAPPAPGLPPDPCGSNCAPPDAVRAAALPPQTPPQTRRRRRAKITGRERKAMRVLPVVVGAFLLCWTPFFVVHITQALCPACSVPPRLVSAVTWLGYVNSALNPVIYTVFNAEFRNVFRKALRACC
Experimental: (§1) The potency of the test compound to reduce ^3 H-spiperone binding directly correlated to its binding affinity for the receptor.
The cells were then centrifuged in a Sorval centrifuge for 10 min, 5000 rpm (GS3 rotor) and the pellets quickly frozen in liquid nitrogen and stored at -80° C. until used in binding assay. When used in the assay, cells were thawed on ice for 20 min and then 1 mL of incubation buffer (50 mM Tris, 1 mM EDTA, 4 mM MgCl2, 5 mM KCl, 1.5 mM CaCl2, 120 mM NaCl, pH7.4) was added. […] Concentration of receptor protein was determined using the Pierce BCA assay.
(§2) The tubes were vortexed and incubated at room temperature for 90 minutes. The binding reaction was stopped by filtering using a Brandell Cell Harvester. The samples were filtered under vacuum over glass fibre filters (Whatman GF/B) presoaked for 2 hours in 0.3% polyethylenimine (PEI) in 50 mM Tris buffer (pH 7.4). The filters were then washed 3 times with 5 ml ice cold 50 mM Tris buffer (pH 7.4). Individual filter disks were put in scintillation vials (Biovials, Bechman). Ready Protein Plus liquid scintillant (5 ml, Beckman) was added and the vials counted by liquid scintillation spectrophotometry (Beckman LSC 6500) after equilibrating for three hours at room temperature to determine total binding (BT).
The tubes were vortexed and incubated at room temperature for 90 minutes at which time the binding reaction was stopped by filtering. The filters were washed and counted using the same procedure as in the total binding assay described above to give the non-specific binding value (NSB).
(§3) The incubation was started by the addition to 12×75 mm polypropylene tubes 500 μl (50 μg protein) membrane homogenate to a solution of 400 μl incubation buffer, 100 μl ([…].) ^3 H-spiperone (90 Ci/mmol, Amersham, diluted in borosilicate glass vial to) and 500 μl of test compound that was prepared from 1 mM stock dissolved in DMSO and stored at -20° C. in polypropylene cryogenic storage vials until dilution in incubation buffer in borosilicate glass vials. The tubes were vortexed and incubated at room temperature for 90 minutes at which time the binding reaction was stopped by filtering. The filters were washed and counted using the same procedure as in the total binding assay described above to give the displacement binding value (BD).
(§4) IC50 was determined from an inhibition response curve, logit-log plot of %B/B0 vs concentration of test compound.
(§5) Ki was calculated by the Cheng and Prustoff transformation: Ki=IC50 /(1+[L]/KD) where [L] is the concentration of ^3 H-spiperone used in the assay and KD is the dissociation constant of ^3 H-spiperone determined independently under the same binding conditions.

[2] = target: T2, human D2 receptor (short isoform) (Homo sapiens, UniProt P14416); assay: D2 receptor binding (displacement of 3H-spiperone) relative to D4: D2/D4 selectivity; conditions: D2/D4 ratio
T2 construct: 3H-spiperone displacement
Experimental: as §1
GH4 C1 (rat pituitary) cells stably transfected with the human D2 receptor (short isoform) were grown in CO2 independent media in roller bottles (1500 cm^2) for 10 days. 100 μM ZnSO4 was added to the cells (the D2 promoter being zinc inducible). After 16 hours, fresh media was added to allow the cells to recover for 24 hours. The cells were harvested using versine and then centrifuged in a Sorval centrifuge for 10 minutes, at 5000 rpm (GS3 rotor). Pellets were quickly frozen in liquid nitrogen and stored at -80° C. until used in the binding assays. When used in the assay, cells were thawed on ice for 20 minutes. […] The receptor protein concentration was determined using the Pierce BCA assay.
as §2
This assay employed the same procedures as the non-specific binding assay for D4 with the exception that 2 μM (final conc.) of (-) sulpiride (Research Chemicals Inc.) was used in place of dopamine.
as §3, §4, §5

human D4 receptors = target: T3, human D4 receptors (Homo sapiens, UniProt P21917); assay: Antagonist assay: reversal of dopamine inhibition of forskolin-stimulated adenyl cyclase (cAMP) in CHO Pro 5 cells; assay type: cell-based; conditions: dopamine and forskolin both 10 μM; for inhibition at 1 µM: test compound 1 μM, read-out: % REVERSAL OF DOPAMINE EFFECT, 1 μM; for inhibition at 10 µM: test compound 10 μM, read-out: % REVERSAL OF DOPAMINE EFFECT, 10 μM
T3 construct: expressed in transfected cells; host or cells: CHO Pro 5 cells, stably expressing
T3 sequence (P21917 1-419): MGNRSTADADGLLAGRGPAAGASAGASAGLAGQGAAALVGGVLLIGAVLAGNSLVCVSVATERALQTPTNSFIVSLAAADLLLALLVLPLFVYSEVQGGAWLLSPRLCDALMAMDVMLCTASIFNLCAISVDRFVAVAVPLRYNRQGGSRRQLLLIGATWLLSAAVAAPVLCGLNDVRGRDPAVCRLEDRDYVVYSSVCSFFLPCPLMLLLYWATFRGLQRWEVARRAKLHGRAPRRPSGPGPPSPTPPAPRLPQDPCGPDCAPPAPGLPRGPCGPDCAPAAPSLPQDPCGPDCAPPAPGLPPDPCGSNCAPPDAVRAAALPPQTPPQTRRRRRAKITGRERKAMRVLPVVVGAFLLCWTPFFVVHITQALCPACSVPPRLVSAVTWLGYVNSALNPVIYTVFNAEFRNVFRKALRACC
Experimental: The D4 receptor responds to dopamine and other agonists by reducing adenyl cyclase mediated production of cyclic AMP. Particular test compounds were assayed for their ability to reverse dopamine inhibition of adenyl cyclase by the following procedure. Forskolin was used to elevate the basal adenyl cyclase activity.
CHO Pro 5 cells stably expressing human D4 receptors were plated in 6 well plates in DMEM (Dulbecco's Modified Eagle Medium)/F12(Nutrient Mixture F12 (Ham)) media with 10% FCS (fetal calf serum) and G418 (Geneticen Disulfate), and incubated at 37° C. in a CO2 incubator. The cells were allowed to grow to about 70% confluence before use in the assay.
The culture media of each well was removed by aspiration, and the wells were washed once with serum free media (SFM) (DMEM/F12) media. Then 2 mL of fresh SFM+IBMX media (SFM with 0.5 mM IBMX (3-isobutyl-1-methylxanthine0.1% ascorbic acid and 10 μM pargyline) was added to each well and then incubated at 37° C. for 10 minutes in CO2 incubator. Following incubation, SFM+IBMX media was aspirated and fresh SFM+IBMX media was added to wells separately with one of a) forskolin (10 μM final conc.); b) dopamine and forskolin (both 10 μM final conc.); […]), and dopamine and forskolin (both 10 μM final conc.). Basal adenyl cyclase activity was determined from wells with only SFM+IBMX media added.
The cells were then incubated at 37° C. for 30 minutes in a CO2 incubator. Following incubation the media was aspirated from each well and then washed once with 2 mL of PBS (phosphate buffered saline). […] The cells from each well were then scraped and transferred into individual Eppendorf tubes. The tubes were centrifuged for 5 min at 4° C., and the supernatants were transferred to new Eppendorf tubes. The pellets were discarded and the supernatants dried using a SpeedVac. The extracts were then reconstituted in 600 μL of 0.1M sodium acetate buffer, pH 6.1, and stored at 4° C. until assayed for cAMP concentration. cAMP content measured in fmoles/well for each extract was determined by EIA (enzyme-immunoassay) using Amersham Biotrak cAMP EIA kit (Amersham RPN 225).
Total inhibition (I0) of forskolin-stimulated adenyl cyclase activity by dopamine was determined as the difference in concentration of cAMP in the forskolin-treated cells (Cf) and dopamine-forskolin treated cells (Cd).
Net inhibition (I) of forskolin-stimulated adenyl cyclase activity by dopamine in the presence of an antagonist was determined as the difference in concentration of cAMP in the forskolin-treated cells (Cf) and test compound, dopamine and forskolin treated cells (C).

D4 receptor = conditions: D4 affinity of currently marketed products; cited from earlier work
[3] = system: D4 receptor relative to the D2 receptor; conditions: currently marketed products; cited from earlier work

T2 sequence (P14416 with tags, fused parts or gaps DEL242-270): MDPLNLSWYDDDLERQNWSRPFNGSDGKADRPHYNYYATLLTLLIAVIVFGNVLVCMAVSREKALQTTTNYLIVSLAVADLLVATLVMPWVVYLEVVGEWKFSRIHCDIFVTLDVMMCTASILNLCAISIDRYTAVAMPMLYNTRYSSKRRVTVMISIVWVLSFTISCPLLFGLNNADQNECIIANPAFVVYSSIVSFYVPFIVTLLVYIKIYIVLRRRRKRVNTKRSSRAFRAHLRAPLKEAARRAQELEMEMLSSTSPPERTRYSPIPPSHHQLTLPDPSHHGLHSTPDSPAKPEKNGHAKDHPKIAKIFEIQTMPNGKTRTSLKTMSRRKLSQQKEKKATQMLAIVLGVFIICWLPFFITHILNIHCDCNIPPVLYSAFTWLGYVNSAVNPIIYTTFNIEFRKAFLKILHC

Ki [1] | D2/D4 [2] | inhibition at 1 µM (human D4 receptors) | inhibition at 10 µM (human D4 receptors) | Compound | Ki (D4 receptor) | preference for binding the D4 receptor relative to the D2 receptor [3]
1 nM | 40 | 52% | 93% | Clc1ccc2c(c1)N=C(N1CCN3CCCC[C@H]3C1)c1ccccc1O2 [8-chloro-11-[(S)-1,4-diazabicyclo[4.4.0]decan-4-yl]-dibenzo[b,f]-1,4-oxazepine] |  | 
18 nM | 32.2 |  |  | Clc1ccc2c(c1)N=C(N1CCN3CCC[C@@H]3C1)c1ccccc1O2 [8-chloro-11-[(R)-1,4-diazabicyclo[4.3.0]non-4-yl]-dibenzo[b,f]-1,4-oxazepine] |  | 
 |  |  |  | CN1CCN(C2=Nc3cc(Cl)ccc3Oc3ccccc32)CC1 [isoloxapine] | ~20 nM | about 10 fold
24 nM | 25.6 |  |  | Clc1ccc2c(c1)N=C(N1CCN3C[C@@H](OCc4ccccc4)C[C@H]3C1)c1ccccc1O2 [8-chloro-11-[(6S,8S)-8-benzyloxy-1,4-diazabicyclo[4.3.0]non-4-yl]-dibenzo[b,f]-1,4-oxazepine] |  | 
15.7 nM | 6.8 |  |  | Clc1ccc2c(c1)N=C(N1CCN3CCCCC3C1)c1ccccc1O2 (racemic) [8-chloro-11-[(R,S)-1,4-diazabicyclo[4.4.0]decan-4-yl]-dibenzo[b,f]-1,4-oxazepine] |  | 
1.2 nM | 104.5 | 23% | 48% | Clc1ccc2c(c1)N=C(N1CCN3CCC[C@H]3C1)c1ccccc1O2 [8-chloro-11-[(S)-1,4-diazabicyclo[4.3.0]non-4-yl]-dibenzo[b,f]-1,4-oxazepine] |  | 
402 nM | 4.1 |  |  | Clc1ccc2c(c1)N=C(N1CCN3CCCC[C@@H]3C1)c1ccccc1O2 [8-chloro-11-[(R)-1,4-diazabicyclo[4.4.0]decan-4-yl]-dibenzo[b,f]-1,4-oxazepine] |  | 
28 nM | 18.2 |  |  | O[C@H]1C[C@H]2CN(C3=Nc4cc(Cl)ccc4Oc4ccccc43)CCN2C1 [8-chloro-11-[(6S,8S)-8-hydroxy-1,4-diazabicyclo[4.3.0]non-4-yl]-dibenzo[b,f]-1,4-oxazepine] |  | 
